The values below come from paper PMC9681820, “A PDE10A inhibitor CPL500036 is a novel agent modulating striatal function devoid of most neuroleptic side-effects” (Frontiers in Pharmacology, 2022).

For data set [1], the system named is calcium channel, voltage-dependent, L type. The data set can be described thus: SafetyScreen44 radioligand binding. Also noted: species or system rat. Particulars: 1 μM. As to the method: (§1) The SafetyScreen44® assay was carried out by Eurofins (Poitiers, France) according to the service-provider’s protocol. CPL500036 (1 µM) was tested against a panel of […] potential off-targets proteins, including G protein-coupled receptors (GPCRs), transporters, ion channels, nuclear receptors kinases and other non-kinase enzymes, by use of a set of the binding assays.
(§2) Binding of CPL500036 was calculated as the percent binding inhibition of a radioactively labeled ligand specific for each target. Enzyme inhibition of CPL500036 was calculated as the percent inhibition of the activity of the control enzyme. “No interaction” was denoted if inhibition ≤ 25% of specific binding of the control. Determination of muscarinic acetylcholine receptor (M2) activity induced by CPL500036 (antagonism and agonism) was undertaken in human recombinant CHO cells by measurement of the intracellular cAMP level according to the service-provider’s protocol. IC50 (concentration causing a half-maximal inhibition of specific binding of the control) or EC50 (concentration causing a half-maximal response of specific binding of the control) and the Hill coefficient were determined by non-linear regression analysis of the competition curves generated with mean replicate values using Hill-equation curve fitting with software developed at Cerep (Celle-Lévescault, France).

The subject of data set [2] is benzodiazepine receptor (GABAA). The data set can be described thus: SafetyScreen44 radioligand binding. Also noted: species or system rat. Particulars: 1 μM; agonist radioligand. The protocol: as §1, §2
In data set [3] the test system is N-Methyl-D-aspartic acid receptor. The data set can be described thus: SafetyScreen44 radioligand binding. Details: species or system rat. Particulars: 1 μM. The protocol:
as §1, §2

For data set [4], the system named is α-dendrotoxin sensitive potassium channel. The data set can be described thus: SafetyScreen44 radioligand binding. Details: species or system rat. Particulars: 1 μM. The protocol: as §1, §2
In data set [5] the test system is voltage-gated sodium channels site 2. The data set can be described thus: SafetyScreen44 radioligand binding. Also noted: species or system rat. The note with it: 1 μM. The protocol: as §1, §2
The next data set concerns the target T1, Cyclooxygenase 1 (Homo sapiens, UniProt P23219).
T1 construct: purchased Eurofins Cerep (SafetyScreen44)
As to the kind of experiment: SafetyScreen44 enzyme inhibition. It is filed as biochemical. The note with it: read-out: % Inh (percent inhibition of the activity of the control enzyme). The protocol: as §1, §2

The target of another data set is T2, phosphodiesterase 3A (Homo sapiens, UniProt Q14432).
T2 construct: purchased Eurofins Cerep (SafetyScreen44)
As to the kind of experiment: SafetyScreen44 enzyme inhibition. It counts as biochemical. The note with it: read-out: % Inh (percent inhibition of the activity of the control enzyme). The protocol: as §1, §2

The target of data set [6] is T3, lymphocyte-specific protein tyrosine kinase (Homo sapiens, UniProt P06239).
T3 construct: purchased Eurofins Cerep (SafetyScreen44)
The data set can be described thus: SafetyScreen44 enzyme inhibition. It is filed as biochemical. Particulars: read-out: % Inh (percent inhibition of the activity of the control enzyme). As to the method: as §1, §2

The target in another data set is T4, phosphodiesterase 4 (Homo sapiens, UniProt Q08499).
T4 construct: purchased Eurofins Cerep (SafetyScreen44)
As to the kind of experiment: SafetyScreen44 enzyme inhibition. It is filed as biochemical. The note with it: read-out: % Inh (percent inhibition of the activity of the control enzyme). As to the method: as §1, §2

Another data set deals with T5, Acetylcholinesterase (Homo sapiens, UniProt P22303).
T5 construct: purchased Eurofins Cerep (SafetyScreen44)
As to the kind of experiment: SafetyScreen44 enzyme inhibition. It counts as biochemical. Particulars: read-out: % Inh (percent inhibition of the activity of the control enzyme). As to the method:
as §1, §2

The target in another data set is T6, Cyclooxygenase 2 (Homo sapiens, UniProt P35354).
T6 construct: purchased Eurofins Cerep (SafetyScreen44)
As to the kind of experiment: SafetyScreen44 enzyme inhibition. It counts as biochemical. Particulars: read-out: % Inh (percent inhibition of the activity of the control enzyme). As to the method:
as §1, §2

The next data set deals with PDE10A (Homo sapiens, UniProt Q9Y233). The data set can be described thus: LabChip microfluidic mobility-shift assay, IC50 against PDE10A. The note with it: eight concentrations 0.1 nM to 300 nM, duplicate. It is filed as biochemical. As to the method:
IC50 determination was assessed using LabChip® microfluid technology (PerkinElmer, Hopkinton, MA, United States) in line with the service-provider’s protocol. CPL500036 was tested at eight concentrations ranging from 0.1 nM to 300 nM. The assay was run on the EZ Reader™ II platform (Caliper Life Sciences, Hopkinton, MA, United States). After the incubation period, levels of the reaction products and remaining substrate were measured. Analyzed data were from duplicate measurement, and IC50 was determined using a variable slope with Prism 5 (GraphPad, San Diego, CA, United States).

The test system of another data set is Beagle dogs. The data set can be described thus: In vivo cardiovascular safety, telemetry. The note with it: 1.5 mg/kg, 10 mg/kg or 30 mg/kg, p.o., n = 4, free-base form. From the text: Four male Beagle dogs who had been implanted previously with telemetry transmitter devices (Data Sciences, Saint Paul, MN, United States) were used. The number of animals corresponds to the standard approach used for such studies ([Smith et al., 2002]; [Authier et al., 2020]) and includes the accepted study sensitivity and ethics for use of nonrodent species ([ICH S7A Safety Pharmacology Studies for Human Pharmaceuticals, 2001]; [Smith et al., 2002]; [Authier et al., 2020]). The study consisted of four acquisition sessions using a crossover design with dosing intervals of ≥ 48 h. In each experimental session, each dog received (via oral gavage) a different treatment: either vehicle or CPL500036 (1.5 mg/kg, 10 mg/kg or 30 mg/kg). Cardiovascular safety was assessed on arterial blood pressure (systolic, diastolic and mean), heart rate (HR) and electrocardiography (RR interval, PR interval, QRS duration, uncorrected QT and corrected QT (QTc) for heart rate using van de Water correction) acquired continuously for ≥ 2 h before dosing, and for ≥ 24 h post-dose. All parameters were evaluated before and at 13-time points after treatment (15 min, 30 min as well as 1 h, 2 h, 3 h, 4 h, 5 h, 6 h, 8 h,12 h, 16 h, 20 h, and 24 h after dosing).

Data set [7] has as its system Salmonella typhimurium TA1535. Particulars: CPL500036 5000µg/plate, n=3.
Data set [8] is described as follows: Hepatocyte stability assay. It is filed as in vitro ADME. Particulars: data not shown, n = 6.
A further data set has as its system human. Particulars: ref Janowska et al., 2019, manuscript in preparation; cited from earlier work.
For a further data set, the system named is Wistar Han rats. The data set can be described thus: Glucose tolerance test. It counts as in vivo. Particulars: 0.3 mg/kg, 1 mg/kg, and 3 mg/kg, p.o., 2 h before glucose bolus, n = 8. The protocol:
Thirty-two male Wistar Han rats (∼10 weeks; Tri-City Academic Laboratory Animal Centre-Research and Services Centre, Medical University of Gdansk) were fasted for 16 h before experimentation. Animals underwent gavage with CPL500036 (0.3 mg/kg, 1 mg/kg or 3 mg/kg) or vehicle 2 h before receiving a glucose bolus (2 g/kg, i.p.; MilliporeSigma). Olanzapine (10 mg/kg) was used as an active comparator and delivered (s.c.) 30 min before the glucose bolus. Blood samples from the tail vein were collected from each rat right before drug administration, just before glucose loading as well as 15 min, 30 min, 60 min, 120 min, and 180 min after glucose administration. The glucose concentration was measured using a glucometer (Accu-ChekGo, Roche Diagnostics, Mannheim, Germany).

The mark [9] stands for this setting: With metabolic activation (+S9 mix), 2AA 2µg/plate.
Setting [10] is: Without metabolic activation (-S9 mix), SAZ 2µg/plate.

Where two headings read alike, the source gives them in different places.

T6 sequence (P35354 18-604): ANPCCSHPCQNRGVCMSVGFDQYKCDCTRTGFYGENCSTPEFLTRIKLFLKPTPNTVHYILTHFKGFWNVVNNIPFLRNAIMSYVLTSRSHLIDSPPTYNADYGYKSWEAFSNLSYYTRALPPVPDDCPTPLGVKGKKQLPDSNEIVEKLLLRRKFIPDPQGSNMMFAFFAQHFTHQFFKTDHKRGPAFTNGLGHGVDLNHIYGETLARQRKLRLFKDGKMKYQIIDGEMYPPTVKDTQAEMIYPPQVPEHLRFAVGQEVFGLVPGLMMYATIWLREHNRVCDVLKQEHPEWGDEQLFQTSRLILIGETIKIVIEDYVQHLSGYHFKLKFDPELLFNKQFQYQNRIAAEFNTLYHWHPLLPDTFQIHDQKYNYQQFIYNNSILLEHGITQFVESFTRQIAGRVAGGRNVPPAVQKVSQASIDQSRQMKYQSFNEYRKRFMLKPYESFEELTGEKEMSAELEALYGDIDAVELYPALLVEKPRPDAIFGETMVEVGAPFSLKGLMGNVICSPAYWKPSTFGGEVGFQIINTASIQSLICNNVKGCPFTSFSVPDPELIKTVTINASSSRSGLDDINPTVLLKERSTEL
T4 sequence (Q08499 whole entry): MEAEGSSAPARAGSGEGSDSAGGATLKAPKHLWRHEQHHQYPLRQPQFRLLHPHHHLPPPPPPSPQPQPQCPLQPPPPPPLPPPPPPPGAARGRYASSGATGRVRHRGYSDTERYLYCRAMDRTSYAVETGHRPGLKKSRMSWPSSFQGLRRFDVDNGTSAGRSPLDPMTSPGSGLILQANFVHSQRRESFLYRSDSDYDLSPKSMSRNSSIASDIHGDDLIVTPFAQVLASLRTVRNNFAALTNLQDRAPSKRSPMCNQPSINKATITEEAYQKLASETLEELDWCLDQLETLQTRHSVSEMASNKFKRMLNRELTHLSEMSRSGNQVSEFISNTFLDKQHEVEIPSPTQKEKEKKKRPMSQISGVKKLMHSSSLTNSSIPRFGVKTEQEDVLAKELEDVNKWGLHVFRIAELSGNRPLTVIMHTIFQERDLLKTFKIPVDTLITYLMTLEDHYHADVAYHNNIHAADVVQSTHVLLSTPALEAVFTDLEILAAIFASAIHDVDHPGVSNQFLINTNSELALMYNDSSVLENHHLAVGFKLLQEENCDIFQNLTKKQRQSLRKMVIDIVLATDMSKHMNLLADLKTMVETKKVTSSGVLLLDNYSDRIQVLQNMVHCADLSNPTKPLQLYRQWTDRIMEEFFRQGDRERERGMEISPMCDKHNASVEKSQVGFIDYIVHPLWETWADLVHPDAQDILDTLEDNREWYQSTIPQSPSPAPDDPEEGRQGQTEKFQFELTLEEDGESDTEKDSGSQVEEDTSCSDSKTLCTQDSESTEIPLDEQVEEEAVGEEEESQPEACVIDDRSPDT
T2 sequence (Q14432 whole entry): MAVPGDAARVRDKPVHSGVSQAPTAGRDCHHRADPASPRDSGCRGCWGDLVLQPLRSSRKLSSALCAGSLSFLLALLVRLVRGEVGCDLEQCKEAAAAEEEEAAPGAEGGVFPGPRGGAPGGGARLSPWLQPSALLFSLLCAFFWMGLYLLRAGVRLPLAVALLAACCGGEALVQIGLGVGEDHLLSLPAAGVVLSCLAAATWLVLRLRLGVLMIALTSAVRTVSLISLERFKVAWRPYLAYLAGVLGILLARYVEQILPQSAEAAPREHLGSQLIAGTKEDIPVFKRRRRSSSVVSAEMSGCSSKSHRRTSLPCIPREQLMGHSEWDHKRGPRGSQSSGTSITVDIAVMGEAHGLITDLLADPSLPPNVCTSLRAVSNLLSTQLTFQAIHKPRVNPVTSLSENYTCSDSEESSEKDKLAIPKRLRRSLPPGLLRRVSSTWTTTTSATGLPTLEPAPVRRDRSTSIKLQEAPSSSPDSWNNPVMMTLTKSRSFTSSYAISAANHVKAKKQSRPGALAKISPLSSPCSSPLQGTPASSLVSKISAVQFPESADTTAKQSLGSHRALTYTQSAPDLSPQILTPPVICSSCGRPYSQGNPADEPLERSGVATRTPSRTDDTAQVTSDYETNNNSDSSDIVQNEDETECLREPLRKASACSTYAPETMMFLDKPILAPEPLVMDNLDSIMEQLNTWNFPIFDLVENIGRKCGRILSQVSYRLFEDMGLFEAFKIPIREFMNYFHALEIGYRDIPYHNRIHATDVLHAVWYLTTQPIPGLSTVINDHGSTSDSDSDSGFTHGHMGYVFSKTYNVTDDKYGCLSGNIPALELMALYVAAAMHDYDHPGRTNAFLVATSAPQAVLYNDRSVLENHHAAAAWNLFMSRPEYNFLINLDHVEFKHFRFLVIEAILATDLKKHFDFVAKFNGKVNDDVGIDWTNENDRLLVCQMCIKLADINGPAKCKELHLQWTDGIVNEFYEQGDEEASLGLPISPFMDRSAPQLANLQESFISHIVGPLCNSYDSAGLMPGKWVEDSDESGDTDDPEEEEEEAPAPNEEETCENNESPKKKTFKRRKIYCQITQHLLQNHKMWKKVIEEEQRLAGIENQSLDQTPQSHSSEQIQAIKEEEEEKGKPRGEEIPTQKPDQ
T3 sequence (P06239 whole entry): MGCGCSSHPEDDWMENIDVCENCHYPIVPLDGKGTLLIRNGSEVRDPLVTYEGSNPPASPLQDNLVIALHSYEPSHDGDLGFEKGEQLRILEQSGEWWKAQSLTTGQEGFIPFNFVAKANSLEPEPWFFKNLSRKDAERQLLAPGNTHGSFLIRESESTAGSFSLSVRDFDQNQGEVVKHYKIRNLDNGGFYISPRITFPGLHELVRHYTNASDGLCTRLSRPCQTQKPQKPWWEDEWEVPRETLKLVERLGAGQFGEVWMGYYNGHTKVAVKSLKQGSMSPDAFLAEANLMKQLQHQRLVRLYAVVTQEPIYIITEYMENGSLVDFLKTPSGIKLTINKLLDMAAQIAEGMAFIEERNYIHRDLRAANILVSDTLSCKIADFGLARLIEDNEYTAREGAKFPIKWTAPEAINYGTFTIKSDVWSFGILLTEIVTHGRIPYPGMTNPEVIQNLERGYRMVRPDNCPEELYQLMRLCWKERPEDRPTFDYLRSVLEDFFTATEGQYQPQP
T1 sequence (P23219 24-599): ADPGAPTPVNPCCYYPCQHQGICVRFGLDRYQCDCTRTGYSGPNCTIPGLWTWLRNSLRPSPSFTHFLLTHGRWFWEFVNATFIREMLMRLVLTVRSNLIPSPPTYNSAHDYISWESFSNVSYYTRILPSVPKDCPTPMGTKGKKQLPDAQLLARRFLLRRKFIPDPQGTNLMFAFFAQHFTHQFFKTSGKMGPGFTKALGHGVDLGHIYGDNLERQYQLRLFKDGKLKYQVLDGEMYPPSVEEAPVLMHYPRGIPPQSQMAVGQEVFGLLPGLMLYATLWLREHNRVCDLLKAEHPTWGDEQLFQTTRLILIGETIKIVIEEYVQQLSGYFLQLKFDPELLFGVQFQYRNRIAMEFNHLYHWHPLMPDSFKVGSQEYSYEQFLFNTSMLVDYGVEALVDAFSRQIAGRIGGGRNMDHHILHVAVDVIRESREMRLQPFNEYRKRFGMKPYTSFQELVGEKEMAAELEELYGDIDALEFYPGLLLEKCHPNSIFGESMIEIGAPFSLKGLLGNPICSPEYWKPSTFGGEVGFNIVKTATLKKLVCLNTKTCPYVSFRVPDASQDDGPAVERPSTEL
T5 sequence (P22303 32-614): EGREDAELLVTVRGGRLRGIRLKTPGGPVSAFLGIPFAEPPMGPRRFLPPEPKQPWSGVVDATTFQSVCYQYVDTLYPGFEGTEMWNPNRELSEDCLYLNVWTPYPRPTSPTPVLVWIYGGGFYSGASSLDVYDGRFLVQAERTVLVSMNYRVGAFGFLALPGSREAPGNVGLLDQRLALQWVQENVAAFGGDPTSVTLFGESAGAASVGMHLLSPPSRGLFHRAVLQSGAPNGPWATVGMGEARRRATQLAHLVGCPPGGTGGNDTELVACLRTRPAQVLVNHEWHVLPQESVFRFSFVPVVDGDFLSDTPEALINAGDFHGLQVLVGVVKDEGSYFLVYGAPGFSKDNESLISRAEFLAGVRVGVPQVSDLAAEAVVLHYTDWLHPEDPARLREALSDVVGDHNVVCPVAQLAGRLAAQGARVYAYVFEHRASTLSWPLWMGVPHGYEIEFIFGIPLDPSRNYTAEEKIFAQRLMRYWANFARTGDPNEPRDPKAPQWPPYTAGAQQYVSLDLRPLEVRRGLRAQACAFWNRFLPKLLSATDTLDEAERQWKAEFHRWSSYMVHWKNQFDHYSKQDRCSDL

Consider `Cc1ncc(C)n2nc(-c3ccn4cc(-c5ccccc5)nc4n3)nc12` [CPL500036, 7-[5,8-Dimethyl-(1,2,4)triazolo (1,5-a)pyrazin-2-yl]-2-phenylimidazo (1,2-a) pyrimidine], for which the “% Inh (% inhibition of control specific binding)” value was −7.2% in [1]; −27.7% in data set [2]; 4.4% in [3]; −10.2% in [4]; −1.3% in data set [5]. In addition, the inhibition at 1 µM at Cyclooxygenase 1 is -9.5%; at phosphodiesterase 3A, -15.2%; in data set [6] it was -1.9%; on phosphodiesterase 4, 0.8%; at Acetylcholinesterase, 13.7%; at Cyclooxygenase 2, -0.4%. The IC50 on PDE10A worked out at 1 nM. The “electrocardiography parameters (particularly QTcv and QRS duration)” value in the data set on Beagle dogs is “Noticeable alterations in any of the electrocardiography parameters analyzed (particularly QTcv and QRS duration) were not observed”. For the same compound, in the data set with Beagle dogs, the heart rate result is “significant differences were not seen compared with the vehicle control group”. Moreover, the “systolic, diastolic and mean blood pressures” value in the data set on Beagle dogs was “Remarkable variations in systolic, diastolic and mean blood pressures were not recorded”. Further, the Mutation rate is reported as 0.6 in data set [7] (setting [9]) and 1.13 in data set [7] (setting [10]). Moreover, the “Revertants Mean±SD” value in [7] (setting [9]) is listed as 8.3±5.13; in data set [7] (setting [10]) it was 12.0±5.57. In addition, the active metabolites result in [8] was “no active metabolites were identified”. The bioavailability in human result in the data set on human is recorded as “bioavailable in human”. In addition, the “safety and tolerability in human” value in the data set with human is “generally safe and well tolerated with no serious adverse effects”. Besides, the “effect on the glucose level, glucose-tolerance test” value in the data set on Wistar Han rats is “has no effect on the glucose level”.

The inhibition is the change of the read-out against control, counted positive when it falls. In general, IC50 refers to the concentration at which inhibition is half-maximal.
